Source: patent US12653191B2, “Active compound combinations” (Bayer Aktiengesellschaft, priority 2020, dated 2026)
Values joined by “and” are separate entries in the source; they are usually repeats but may differ in a detail not shown here. Identical values can stand only once. Like-named read-outs stand apart in the source and are kept apart here.

How the values were obtained:
Cordana musae [1] = experiment: in vitro-Test with fungal microorganisms, Method B (tables E9-E16); type: cell-based; conditions: single active
In short: (§1)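 Efficacy, relative to untreated control (0% = growth as in control, 100% = no growth), from photometric growth measurement at 600 nm after 3 to 7 days at 20° C., 85% relative humidity. Compound applied in methanol+emulsifier, solvent evaporated, then spore/mycelium-amended liquid medium added.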

Parastagonospora nodorum = experiment: in vitro-Test with fungal microorganisms, Method B (tables H5-H8); type: cell-based
Description: (§2) Example: In Vitro-Test with Fungal Microorganisms
(§3) Wells of 96-well microtiter plates are filled with 30 μl of a preparation of test compound or compound combination in methanol+emulsifier alkylaryl-polyglycol-ether. Thereafter, the solvent is evaporated in a hood. At the next step, 200 μl of liquid growth medium is given, that has been amended with an appropriate concentration of spores or mycelium suspension of the test fungus.
(§4) With the aid of a photometer, the extinction in all wells is measured at the wavelength of 600 nm.
(§5) The microtiter plates are incubated for 3 to 7 days at 20° C. and 85% relative humidity. After the incubation inhibition of growth is determined photometrically. Efficacy is calculated in relation to the untreated control, 0% efficacy means fungal growth as high as in untreated control while 100% efficacy means no fungal growth is measured.
(§6) The data in tables A1 to A12, B1 to B14, C1 to C10, D1 to D8, E1 to E8, F1 to F11, G1 to G4, H1 to H4 and I1 to I5 were collected according to Method A. The data in tables A13 to A22, B15 to B18, C11 to C20, E9 to E16, F12 to F15, G5 to G15, H5 to H8, I6 to I11 and J1 to J11 were collected according to Method B.

Fusarium culmorum = experiment: in vitro-Test with fungal microorganisms, Method B (tables G5-G15); type: cell-based; conditions: for inhibition of growth at 0.08 ppm / inhibition of growth at 0.4 ppm / inhibition of growth at 2 ppm: Fusarium culmorum, read-out: Efficacy
In short: as §1

Cercospora beticola [2] = experiment: in vitro-Test with fungal microorganisms, Method B (tables C11-C20); type: cell-based
In short: as §1

Alternaria alternata = experiment: in vitro-Test with fungal microorganisms, Method B (tables A13-A22); type: cell-based
In short: as §1

[3] = system: Ustilago segetum var. avenae; experiment: in vitro-Test with fungal microorganisms, Method B (tables I6-I11); type: cell-based; conditions: read-out: Efficacy %
In short: as §1

Colletotrichum coccodes = experiment: in vitro-Test with fungal microorganisms, Method B (tables J1-J11); type: cell-based; conditions: for inhibition of growth at 0.4 ppm / inhibition of growth at 2 ppm / inhibition of growth at 0.08 ppm: Colletotrichum coccodes, read-out: Efficacy %
In short: as §1

Botrytis cinerea [4] = experiment: in vitro-Test with fungal microorganisms, Method B (tables B15-B18); type: cell-based
In short: as §1

Diaporthe citri [5] = experiment: in vitro-Test with fungal microorganisms, Method B (tables F12-F15); type: cell-based; conditions: Table F13
Description: as §2, §3, §4, §5, §6

Cordana musae [6] = experiment: in vitro-Test with fungal microorganisms, Method A (tables E1-E8); type: cell-based; conditions: mixing partner alone
In short: (§7)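 Compound was dried into wells and overlaid with liquid potato dextrose medium containing spores or mycelium of the fungus. Plates were held at 20° C and 85% RH, and growth was read as extinction at 620 nm after 3–5 days. Efficacy is relative to the untreated control (0% = control growth, 100% = no growth).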

Botrytis cinerea [7] = experiment: in vitro-Test with fungal microorganisms, Method A (tables B1-B14); type: cell-based; conditions: for Efficacy %: alone
In short: as §7

Cercospora beticola [8] = experiment: in vitro-Test with fungal microorganisms, Method A (tables C1-C10); type: cell-based
In short: as §7

Diaporthe citri [9] = experiment: in vitro-Test with fungal microorganisms, Method A (tables F1-F11); type: cell-based
In short: as §7

Alternaria alternate = experiment: in vitro-Test with fungal microorganisms, Method A (tables A1-A12); type: cell-based, Alternaria alternata; conditions: applied alone
In short: as §7

[10] = system: Colletotrichum lindemuthianum; experiment: in vitro-Test with fungal microorganisms, Method A (tables D1-D8); type: cell-based
In short: as §7

[11] = Neocordana musae, 0.08 ppm, read-out: Efficacy
[12] = single active compound, 0.08 ppm
[13] = Cercospora beticola, single compound, 0.08 ppm, read-out: Efficacy %
[14] = Cercospora beticola, single compound, read-out: Efficacy %
[15] = single active compound at 0.08 ppm
[16] = single active compound at 0.4 ppm
[17] = single active compound at 2 ppm
[18] = single active compound, 0.4 ppm

CCN(C)C=Nc1cc(C)c(Oc2cccc(SC(F)(F)C(F)F)c2)cc1C [(1.067), N′-(2,5-dimethyl-4-{3-[(1,1,2,2-tetrafluoro-ethyl)sulfanyl]-phenoxy}phenyl)-N-ethyl-N-methyl-imidoformamide]
inhibition of growth at 0.08 ppm (Cordana musae [1]; [11]): 0%
inhibition of growth at 0.4 ppm (Cordana musae [1]; Neocordana musae, 0.4 ppm, read-out: Efficacy): 14%
inhibition of growth at 2 ppm (Cordana musae [1]; Neocordana musae, 2 ppm, read-out: Efficacy): 100%
inhibition of growth at 0.08 ppm (Parastagonospora nodorum; Parastagonospora nodorum, 0.08 ppm, read-out: Efficacy): 94%
inhibition of growth at 0.4 ppm (Parastagonospora nodorum; Parastagonospora nodorum, 0.4 ppm, read-out: Efficacy): 100%
inhibition of growth at 0.08 ppm (Fusarium culmorum; 0.08 ppm, alone): 30%
inhibition of growth at 0.4 ppm (Fusarium culmorum; 0.4 ppm, alone): 26%
inhibition of growth at 2 ppm (Fusarium culmorum; 2 ppm, alone): 99%
inhibition of growth at 0.08 ppm (Fusarium culmorum; [12]): 22%
inhibition of growth at 2 ppm (Fusarium culmorum; single active compound, 2 ppm): 97%
inhibition of growth at 0.08 ppm (Cercospora beticola [2]; [13]): 0%
inhibition of growth at 0.4 ppm (Cercospora beticola [2]; [14]): 68%
inhibition of growth at 2 ppm (Cercospora beticola [2]; Cercospora beticola, single compound, 2 ppm, read-out: Efficacy %): 100%
inhibition of growth at 2 ppm (Alternaria alternata; Alternaria alternata, 2 ppm, read-out: Efficacy): 74%
inhibition of growth at 0.08 ppm ([3]; alone): 100%
inhibition of growth at 0.4 ppm (Colletotrichum coccodes; 0.4 ppm): 0%
inhibition of growth at 2 ppm (Colletotrichum coccodes; 2 ppm): 99%
inhibition of growth at 0.08 ppm (Colletotrichum coccodes; [15]): 1%
inhibition of growth at 0.4 ppm (Colletotrichum coccodes; [16]): 12%
inhibition of growth at 2 ppm (Colletotrichum coccodes; [17]): 97%

CO/N=C(/C1=NOCCO1)c1ccccc1Oc1ncnc(Oc2ccccc2Cl)c1F [(3.012) fluoxastrobin, fluoxastrobin]
inhibition of growth at 0.08 ppm (Cordana musae [1]; [11]): 3%
inhibition of growth at 0.08 ppm (Fusarium culmorum; 0.08 ppm, alone): 19%
inhibition of growth at 0.08 ppm (Fusarium culmorum; [12]): 27%
inhibition of growth at 0.4 ppm (Fusarium culmorum; [18]): 47%
inhibition of growth at 2 ppm (Fusarium culmorum; single active compound, 2 ppm): 37%
inhibition of growth at 0.4 ppm (Cercospora beticola [2]; Cercospora beticola, read-out: Efficacy %): 100%
inhibition of growth at 0.08 ppm (Cercospora beticola [2]; [13]): 96%
inhibition of growth at 0.4 ppm (Cercospora beticola [2]; [14]): 100%
inhibition of growth at 0.4 ppm (Botrytis cinerea [4]; Botrytis cinerea, 0.4 ppm alone, read-out: Efficacy %): 20%
inhibition of growth at 2 ppm (Botrytis cinerea [4]; Botrytis cinerea, 2 ppm alone, read-out: Efficacy %): 31%
inhibition of growth at 4 ppm (Alternaria alternata; Alternaria alternata, 4 ppm, read-out: Efficacy): 68%
inhibition of growth at 20 ppm (Alternaria alternata; Alternaria alternata, 20 ppm, read-out: Efficacy): 92%
inhibition of growth at 0.4 ppm (Alternaria alternata; Alternaria alternata, single compound, 0.4 ppm, read-out: Efficacy): 70%
Efficacy (Diaporthe citri [5]; 0.4 ppm alone): 83%
Efficacy (Diaporthe citri [5]; 2 ppm alone): 96%
inhibition of growth at 0.08 ppm [3]: 18%
inhibition of growth at 0.4 ppm ([3]; 0.4 ppm): 51%
inhibition of growth at 0.08 ppm ([3]; alone): 16%
inhibition of growth at 0.08 ppm (Colletotrichum coccodes; 0.08 ppm): 41%
inhibition of growth at 0.08 ppm (Colletotrichum coccodes; [15]): 0%
inhibition of growth at 2 ppm (Colletotrichum coccodes; [17]): 0%

CCCOc1nc2ccc(I)cc2c(=O)n1CCC [(13.004) proquinazid, proquinazid]
Efficacy (Cordana musae [1]; 0.08 ppm): 0% and 5%
Efficacy (Cordana musae [1]; 0.4 ppm): 0% and 3%
Efficacy (Cordana musae [1]; 10 ppm): 15% and 20%
Efficacy % (Cordana musae [6]; 0.08 ppm): 0%
Efficacy % (Cordana musae [6]; 0.4 ppm): 0%
Efficacy % (Cordana musae [6]; 2.0 ppm): 1%
Efficacy % (Cordana musae [6]; 10.0 ppm): 26%
Efficacy (Botrytis cinerea [7]; 0.08 ppm): 13%
Efficacy (Botrytis cinerea [7]; 0.4 ppm): 0%
Efficacy (Botrytis cinerea [7]; 2.0 ppm): 0%
Efficacy (Botrytis cinerea [7]; 10.0 ppm): 0%
Efficacy % (Botrytis cinerea [7]; 0.4 ppm): 0%
Efficacy % (Botrytis cinerea [7]; 10.0 ppm): 0%
Efficacy % (Cercospora beticola [8]; 0.08 ppm alone): 9%
Efficacy % (Cercospora beticola [8]; 0.4 ppm alone): 0%
Efficacy % (Cercospora beticola [8]; 2.0 ppm alone): 0%
Efficacy % (Cercospora beticola [8]; 10.0 ppm, alone): 19%
Efficacy (Diaporthe citri [9]; Table F10, 0.08 ppm alone): 0%
Efficacy (Diaporthe citri [9]; Table F10, 0.4 ppm alone): 0%
Efficacy (Diaporthe citri [9]; Table F10, 2.0 ppm alone): 12%
Efficacy (Diaporthe citri [9]; Table F10, 10.0 ppm alone): 24%
Efficacy (Diaporthe citri [9]; applied alone, 0.08 ppm): 16%
Efficacy (Diaporthe citri [9]; applied alone, 0.4 ppm): 0%
Efficacy (Diaporthe citri [9]; applied alone, 10.0 ppm): 21%
Efficacy (Parastagonospora nodorum; 0.08 ppm): 32%
Efficacy (Fusarium culmorum; 0.08 ppm alone): 18%
Efficacy (Fusarium culmorum; 0.4 ppm alone): 0%
Efficacy (Fusarium culmorum; [12]): 2%
Efficacy (Fusarium culmorum; [18]): 11%
Efficacy (Fusarium culmorum; single active compound, 2 ppm): 8% and 7%
Efficacy % (Cercospora beticola [2]; 2 ppm): 0%
Efficacy % (Cercospora beticola [2]; 10 ppm): 0%
Efficacy % (Cercospora beticola [2]; single compound, 0.08 ppm): 0%
Efficacy % (Botrytis cinerea [4]; 0.4 ppm alone): 0%
Efficacy % (Botrytis cinerea [4]; 2 ppm alone): 3% and 5%
Efficacy % (Alternaria alternate; 0.08 ppm): 19%
Efficacy % (Alternaria alternate; 0.4 ppm): 6%
Efficacy % (Alternaria alternate; 2.0 ppm): 0%
Efficacy % (Alternaria alternate; 10.0 ppm): 9%
Efficacy (Alternaria alternata; 0.08 ppm): 0%
Efficacy (Alternaria alternata; 0.4 ppm): 3%
Efficacy (Alternaria alternata; 2 ppm): 4%
Efficacy (Alternaria alternata; single compound, 0.08 ppm): 11%
Efficacy (Alternaria alternata; single compound, 0.4 ppm): 10%
Efficacy (Alternaria alternata; single compound, 2 ppm): 0%
Efficacy (Alternaria alternata; single compound, 10 ppm): 5%
Efficacy % ([10]; single active at 0.08 ppm): 0%
Efficacy % ([10]; single active at 0.4 ppm): 0%
Efficacy % ([10]; single active at 2.0 ppm): 2%
Efficacy % ([10]; single active at 10.0 ppm): 25%
Efficacy % (Colletotrichum coccodes; [16]): 0%
Efficacy % (Colletotrichum coccodes; [17]): 0%
Efficacy % (Colletotrichum coccodes; single active compound at 10 ppm): 0%
